What follows are molecules tested against NLRP3 inflammasome (Homo sapiens, UniProt Q96P20) (assay: IL-1β assay in IFN-γ-differentiated, LPS-primed, ATP-activated THP-1 cells (ELISA)). Conditions: 50 ng/mL LPS priming, 2.5 mM ATP activation, 2 hours.
Assay type: cell-based
Method: Monocytic THP-1 cells (ATCC: TIB-202) are maintained in accordance with the provider's instructions in RPMI media (Life Technologies, Cat #A10491-01); RPMI is supplemented with 10% heat inactivated fetal bovine serum (Hyclone Cat #SH30396.03). The cells are differentiated into macrophages by the addition of 25 ng/mL IFN-7 (PeproTech, Cat #300-02-100UG) for 24 hours at 37° C./5% CO2. Media is exchanged with fresh media with no FBS, and the cells are treated with 50 ng/mL LPS (priming step) for 24 hours at 37° C./5% CO2 (LPS-EK: Invivogen, Cat #tlrl-peklps). Media is exchanged with fresh media with no FBS. The cells are plated at 40,000 cells per well in 384-well flat-bottom cell culture plates (Costar 3764) containing compounds (added in 1:1000) in a 1:3.16 serial dilution series in DMSO and are incubated for 30 minutes at 37° C./5% CO2. The NLRP3 inflammasome is activated with the addition of 2.5 mM ATP (Sigma Cat #A3377) and the cells are incubated for 2 hours at 37° C./5% CO2. At the end of the incubation period, 40 μL supernatant is removed, and […] are monitored using an ELISA (Human […], R&D systems, Cat #DY201) in accordance with the manufacturer's instructions.
The IC50 values are calculated from a plot of percentage of inhibition versus the inhibitor concentration by a logistics curve fit according to: Y=[Bottom+(Top−Bottom)]/(1+10^[(Log IC50−X)·Hill Slope], where Y is the % inhibition at the inhibitor concentration, X, “Bottom” is the lowest inhibition value, i.e. 0%, “Top” is the maximum inhibition value, i.e. 100%, and the “Hill Slope” describes the slope of the sigmoidal curve between the “Bottom” and “Top” values. The curve fitting was conducted with internally developed software.

NLRP3 inflammasome, sequence (Q96P20 whole entry): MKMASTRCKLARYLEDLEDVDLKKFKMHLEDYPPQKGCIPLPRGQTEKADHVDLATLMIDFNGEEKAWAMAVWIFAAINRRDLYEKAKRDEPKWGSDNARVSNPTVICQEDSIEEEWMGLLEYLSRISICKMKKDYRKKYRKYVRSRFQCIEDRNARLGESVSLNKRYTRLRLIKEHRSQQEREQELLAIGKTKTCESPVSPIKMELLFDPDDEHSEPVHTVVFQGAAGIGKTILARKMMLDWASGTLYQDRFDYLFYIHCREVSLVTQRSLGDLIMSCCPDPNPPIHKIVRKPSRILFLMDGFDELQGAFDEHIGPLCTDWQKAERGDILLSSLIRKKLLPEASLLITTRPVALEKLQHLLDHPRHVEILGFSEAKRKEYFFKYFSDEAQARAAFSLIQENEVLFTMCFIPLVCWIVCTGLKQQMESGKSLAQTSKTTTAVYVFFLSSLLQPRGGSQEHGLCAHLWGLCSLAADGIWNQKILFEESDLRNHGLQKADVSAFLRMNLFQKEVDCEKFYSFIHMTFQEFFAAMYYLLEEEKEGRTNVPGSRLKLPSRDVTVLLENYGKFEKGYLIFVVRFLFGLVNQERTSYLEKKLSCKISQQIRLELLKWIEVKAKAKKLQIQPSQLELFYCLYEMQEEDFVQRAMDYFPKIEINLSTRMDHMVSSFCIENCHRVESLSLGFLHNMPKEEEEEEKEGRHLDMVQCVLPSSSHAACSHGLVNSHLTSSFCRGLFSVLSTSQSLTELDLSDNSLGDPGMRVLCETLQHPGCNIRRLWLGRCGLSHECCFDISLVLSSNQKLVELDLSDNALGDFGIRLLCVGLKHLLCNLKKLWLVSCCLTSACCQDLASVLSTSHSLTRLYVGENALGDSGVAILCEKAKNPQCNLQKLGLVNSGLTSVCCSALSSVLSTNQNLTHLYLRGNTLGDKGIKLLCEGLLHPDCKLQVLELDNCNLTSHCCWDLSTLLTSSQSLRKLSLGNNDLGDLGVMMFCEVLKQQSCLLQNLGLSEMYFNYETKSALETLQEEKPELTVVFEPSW

| IC50 | Compound |
| --- | --- |
| 2190 nM | O[C@]1(C(F)(F)F)CCC[C@H](Nc2nnc(-c3ccc(Cl)cc3)c3ccccc23)C1 [Example 115, (1R,3S)-3-((4-(4-chlorophenyl)phthalazin-1-yl)amino)-1-(trifluoromethyl)cyclohexan-1-ol] |
| 912 nM | O[C@]1(C(F)(F)F)CCC[C@@H](Nc2nnc(-c3ccc(Cl)cc3)c3ccccc23)C1 [Example 116, (1R,3R)-3-((4-(4-chlorophenyl)phthalazin-1-yl)amino)-1-(trifluoromethyl)cyclohexan-1-ol] |
| 624 nM | O[C@]1(C(F)(F)F)C[C@@H](Nc2nnc(-c3ccc(Cl)cc3)c3ccccc23)C1 [Example 117, trans-3-((4-(4-chlorophenyl)phthalazin-1-yl)amino)-1-(trifluoromethyl)cyclobutan-1-ol] |
| 2750 nM | C[C@]1(O)C[C@H](Nc2nnc(-c3ccc(Cl)cc3)c3ccccc23)C1 [Example 119, trans-3-((4-(4-chlorophenyl)phthalazin-1-yl)amino)-1-methylcyclobutan-1-ol] |
| 933 nM | O[C@]1(C(F)(F)F)C[C@H](Nc2nnc(-c3ccc(Cl)cc3)c3ccccc23)C1 [Example 120, cis-3-((4-(4-chlorophenyl)phthalazin-1-yl)amino)-1-(trifluoromethyl)cyclobutan-1-ol] |
| 3980 nM | C[C@]1(O)CC[C@H](Nc2nnc(-c3ccc(Cl)cc3)c3ccccc23)CC1 [Example 121, trans-4-((4-(4-chlorophenyl)phthalazin-1-yl)amino)-1-methylcyclohexan-1-ol] |
| 2750 nM | CCN1CCCC1CNc1nnc(-c2ccc(OC)cc2)c2ccccc12 (centres unmarked) [Example 125, N-((1-ethylpyrrolidin-2-yl)methyl)-4-(4-methoxyphenyl)phthalazin-1-amine] |
| 2570 nM | COc1ccc(-c2nnc(NC3CCN(C)C3)c3ccccc23)cc1 (centres unmarked) [Example 126, 4-(4-methoxyphenyl)-N-(1-methylpyrrolidin-3-yl)phthalazin-1-amine] |
| 3020 nM | COc1ccc(-c2nnc(N[C@H]3CC[C@](O)(C(F)(F)F)CC3)c3ccccc23)cc1 [Example 128, trans-4-((4-(4-methoxyphenyl)phthalazin-1-yl)amino)-1-(trifluoromethyl)cyclohexan-1-ol] |
| 2820 nM | COc1ccc(-c2nnc(NCC(C)N3CCCC3)c3ccccc23)cc1 (centres unmarked) [Example 129, 4-(4-methoxyphenyl)-N-(2-(pyrrolidin-1-yl)propyl)phthalazin-1-amine] |
| 3890 nM | COc1ccc(-c2nnc(NCC3CCCCN3C)c3ccccc23)cc1 (centres unmarked) [Example 130, 4-(4-methoxyphenyl)-N-((1-methylpiperidin-2-yl)methyl)phthalazin-1-amine] |
| 3630 nM | COc1ccc(-c2nnc(NCC3(N4CCCC4)CC3)c3ccccc23)cc1 [Example 131, 4-(4-methoxyphenyl)-N-((1-(pyrrolidin-1-yl)cyclopropyl)methyl)phthalazin-1-amine] |
| 3890 nM | COc1ccc(-c2nnc(NC3(CN4CCC4)CC3)c3ccccc23)cc1 [Example 132, N-(1-(azetidin-1-ylmethyl)cyclopropyl)-4-(4-methoxyphenyl)phthalazin-1-amine] |
| 468 nM | OC1CC2(C1)CC(Nc1nnc(-c3ccc(Cl)cc3)c3ccccc13)C2 (centres unmarked) [Example 133, 6-((4-(4-chlorophenyl)phthalazin-1-yl)amino)spiro[3.3]heptan-2-ol] |
| 2290 nM | CO[C@H]1C[C@@H](Nc2nnc(-c3ccc(Cl)cc3)c3ccccc23)C1 [Example 134, 4-(4-chlorophenyl)-N-(cis-3-methoxycyclobutyl)phthalazin-1-amine] |
| 4570 nM | COC1(C)CC(Nc2nnc(-c3ccc(Cl)cc3)c3ccccc23)C1(C)C (centres unmarked) [Example 135, 4-(4-chlorophenyl)-N-(3-methoxy-2,2,3-trimethylcyclobutyl)phthalazin-1-amine] |
| 3720 nM | CC12CCC(Nc3nnc(-c4ccc(Cl)cc4)c4ccccc34)(CO1)C2 (centres unmarked) [Example 136, 4-(4-chlorophenyl)-N-(1-methyl-2-oxabicyclo[2.2.1]heptan-4-yl)phthalazin-1-amine] |
| 3800 nM | COc1ccc(-c2nnc(NC3CCCC(C)(O)C3)c3ccccc23)cc1 (centres unmarked) [Example 137, 3-((4-(4-methoxyphenyl)phthalazin-1-yl)amino)-1-methylcyclohexan-1-ol] |

| IC50 | Compound |
| --- | --- |
| 1110 nM | CC1(O)CCCC(Nc2nnc(-c3ccc(Cl)cc3)c3ccccc23)C1 (centres unmarked) [Example 138, 3-((4-(4-chlorophenyl)phthalazin-1-yl)amino)-1-methylcyclohexan-1-ol] |
| 269 nM | COc1ccc(-c2nnc(NC3CCCN(CCF)C3)c3ccccc23)cc1 (centres unmarked) [Example 141, N-(1-(2-fluoroethyl)piperidin-3-yl)-4-(4-methoxyphenyl)phthalazin-1-amine] |
| 1590 nM | FCCN1CCC(Nc2nnc(-c3ccc(Cl)cc3)c3ccccc23)C1 (centres unmarked) [Example 143, 4-(4-chlorophenyl)-N-(1-(2-fluoroethyl)pyrrolidin-3-yl)phthalazin-1-amine] |
| 132 nM | Clc1ccc(-c2nnc(NC3CCCN(C4CCC4)C3)c3ccccc23)cc1 (centres unmarked) [Example 145, 4-(4-chlorophenyl)-N-(1-cyclobutylpiperidin-3-yl)phthalazin-1-amine] |
| 56 nM | Clc1ccc(-c2nnc(NC3CCCN(C4CCCC4)C3)c3ccccc23)cc1 (centres unmarked) [Example 146, 4-(4-chlorophenyl)-N-(1-cyclopentylpiperidin-3-yl)phthalazin-1-amine] |
| 1480 nM | FC(F)(F)CN1CCCC(Nc2nnc(-c3ccc(Cl)cc3)c3ccccc23)C1 (centres unmarked) [Example 147, 4-(4-chlorophenyl)-N-(1-(2,2,2-trifluoroethyl)piperidin-3-yl)phthalazin-1-amine] |
| 1050 nM | CS(=O)(=O)N1CCCC(Nc2nnc(-c3ccc(Cl)cc3)c3ccccc23)C1 (centres unmarked) [Example 148, 4-(4-chlorophenyl)-N-(1-(methylsulfonyl)piperidin-3-yl)phthalazin-1-amine] |
| 3310 nM | CN(C)C1CC(Nc2nnc(-c3ccc(Cl)cc3)c3ccccc23)C1 (centres unmarked) [Example 149, Ni-(4-(4-chlorophenyl)phthalazin-1-yl)-N^3,N^3-dimethylcyclobutane-1,3-diamine] |
| 325 nM | COc1ccc(-c2nnc(NC3CCCN(C)C3)c3cnn(C)c23)cc1 (centres unmarked) [Example 150, 7-(4-methoxyphenyl)-1-methyl-N-(1-methylpiperidin-3-yl)-1H-pyrazolo[3,4-d]pyridazin-4-amine] |
| 3020 nM | CN1CC2CCCC(C1)C2Nc1nnc(-c2ccc(Cl)cc2)c2ccccc12 (centres unmarked) [Example 151, 4-(4-chlorophenyl)-N-(3-methyl-3-azabicyclo[3.3.1]nonan-9-yl)phthalazin-1-amine] |
| 3390 nM | Clc1ccc(-c2nnc(NC3CCCN(c4ccccn4)C3)c3ccccc23)cc1 (centres unmarked) [Example 154, 4-(4-chlorophenyl)-N-(1-(pyridin-2-yl)piperidin-3-yl)phthalazin-1-amine] |
| 3550 nM | Oc1ccccc1Nc1nnc(-c2ccc(Cl)cc2)c2ccccc12 [Example 156, 2-((4-(4-chlorophenyl)phthalazin-1-yl)amino)phenol] |
| 4570 nM | CN1CC(Nc2nnc(-c3ccc(Cl)cc3)c3ccccc23)C(C)(C)C1 (centres unmarked) [Example 157, 4-(4-chlorophenyl)-N-(1,4,4-trimethylpyrrolidin-3-yl)phthalazin-1-amine] |
| 2290 nM | Clc1ccc(-c2nnc(NC3CCN(Cc4ccccc4)C3)c3ccccc23)cc1 (centres unmarked) [Example 158, N-(1-benzylpyrrolidin-3-yl)-4-(4-chlorophenyl)phthalazin-1-amine] |
| 3630 nM | CCN1CC(C)C(Nc2nnc(-c3ccc(Cl)cc3)c3ccccc23)C1 (centres unmarked) [Example 159, 4-(4-chlorophenyl)-N-(1-ethyl-4-methylpyrrolidin-3-yl)phthalazin-1-amine] |
| 4790 nM | CC(=O)N1CCC(Nc2nnc(-c3ccc(Cl)cc3)c3ccccc23)C1 (centres unmarked) [Example 160, 1-(3-((4-(4-chlorophenyl)phthalazin-1-yl)amino)pyrrolidin-1-yl)ethan-1-one] |
| 977 nM | Clc1ccc(-c2nnc(NC3CCN(CC4CC4)C3)c3ccccc23)cc1 (centres unmarked) [Example 161, 4-(4-chlorophenyl)-N-(1-(cyclopropylmethyl)pyrrolidin-3-yl)phthalazin-1-amine] |
| 3020 nM | Clc1ccc(-c2nnc(NC3CCN(Cc4ccccc4)CC3)c3ccccc23)cc1 [Example 163, N-(1-benzylpiperidin-4-yl)-4-(4-chlorophenyl)phthalazin-1-amine] |

| Compound | IC50 |
| --- | --- |
| FC(F)CN1CCCC(Nc2nnc(-c3ccc(Cl)cc3)c3ccccc23)C1 (centres unmarked) [Example 142, 4-(4-chlorophenyl)-N-(1-(2,2-difluoroethyl)piperidin-3-yl)phthalazin-1-amine] | 195 nM |
| Clc1ccc(-c2nnc(NC3CN4CCC3CC4)c3ccccc23)cc1 (centres unmarked) [Example 164, N-(4-(4-chlorophenyl)phthalazin-1-yl)quinuclidin-3-amine] | 372 nM |

— patent US20250340563A1, “FUSED PYRIDAZINE DERIVATIVES AS NLRP3 INHIBITORS” (Takeda Pharmaceutical Company Limited, priority 2022, published 2025)
